We go through 1 molecule from patent US11986470B2, “Methods of treating prostate cancer” (Janssen Pharmaceutica NV, priority 2016, dated 2024).

Structures are written as SMILES. Like-named read-outs stand apart in the source and are kept apart here.

Experiment [1] has as its system C4-2B human prostate tumors.
Description: This tumor model is not believed to be BRCA-1 or BRCA-2 deficient. Vehicle was 0.5% Methyl cellulose (MethocelTM [MUT]) prepared and kept at 4° C. in the dark. All formulations were made to be dosed at a volume of 10 ml/kg body weight. NSG male mice (Jackson Laboratories) were used. Animals were habituated for one week prior to any experimental procedures being performed. […] Mice were fed an autoclaved high fat (6%) diet laboratory chow and water ad libitum. Mice were injected with LNCaP C4-2B-luc tagged cells (1×10^6 tumors cells in a 200 μl volume of Cultrex®:RPMI 1640 medium (1:1 ratio) on the right flank. […] Mice were dosed daily by gavage (p.o.) with either vehicle, or vehicle containing niraparib as indicated below at 10 ml/kg dosing volume. Start of treatment=Day 1. Mice were treated through study day 24. […] For each individual animal, body weight and tumor volume [using the formula: Tumor Volume (mm3)=(a×b^2/2); where 'a' represents the length, and 'b' the width of the tumor as determined by caliper measurements], were monitored twice weekly throughout the study. For the pre-established tumors, a time-course of tumor growth is expressed as mean±standard error of the mean (SEM).
The next experiment relates to C4-2B cells. In words: cells. The settings on record: 7-day niraparib treatment. On the procedure:
(§1) In vitro cytotoxicity of niraparib was assessed in 5 human prostate cancer cell lines: C4-2B, LNCaP, LNCaP AR.TB, VCaP, and 22Rv1. C4-2B, LNCaP, LNCaP AR.TB, and 22Rv1 cell lines were grown in RPMI1640±GlutaMAX™-I medium (Life Technologies #61870-036) supplemented with 10% heat-inactivated fetal bovine serum (FBS) (Life Technologies 416140-071) and non-essential amino acids (NEAA) (Life Technologies #11140-050); and VCaP cells were grown in DMEM+GlutaMAX™-I medium (Life Technologies ##10569-010) with 10% FBS and NEAA. VCaP cells were subcultured every 7 days; other lines were split every 3-4 days. Cell growth kinetics of each cell line were determined by seeding cells at several densities and monitoring growth at intervals up to 7 days. Growth was determined using the Promega Cell TiterGlo reagent (#G7571) to measure cellular ATP by means of a chemiluminescent luciferin-luciferase reaction. […] For niraparib cytotoxicity experiments, cells were harvested by brief trypsinization and each line was seeded to the inner 60 wells of 96-well plates in 100 μL of medium at an appropriate density for a 7-day treatment. The outer wells of each plate were filled with Dulbecco's phosphate buffered saline (DPBS; Life Technologies #14190-144) to reduce evaporation from test wells. Cells were rested overnight in the plates at 37° C. in a humidified 5% CO2 incubator. […] The final vehicle concentration was 0.5% DMSO. Cells were cultured for 7 days. Relative cell viability after treatment was determined using Cell TiterGlo reagent, as above. All luminescent output values were normalized to percent inhibition based on mean luminescence of the untreated control wells, and the mean percent inhibition of the vehicle control wells was subtracted from each treatment value. Percent inhibition was plotted vs log μM concentration in GraphPad Prism 7.00. Nonlinear regression and calculation of EC50 values were performed using the log(agonist) vs. response—Variable slope (four parameters) fit.

The next experiment relates to VCaP cells. As to the kind of experiment: cells. The settings on record: 7-day niraparib treatment. How it is done:
as §1

Another experiment has as its system LNCaP cells. In words: cells. The settings on record: Homo sapiens, 168 h. On the procedure:
as §1

The next experiment relates to LNCaP AR.TB cells. In words: cells. The settings on record: Homo sapiens, 168 h. On the procedure: as §1
The next experiment concerns 22Rv1 cells. As to the kind of experiment: cells. Conditions: Homo sapiens, 22Rv1, 168 h. How it is done: as §1
Another experiment deals with γ-H2AX in C4-2B cells. The settings on record: C4-2B (printed C4-28), 18 hours.
For experiment [2], the system named is poly(ADP)ribose (PAR) formation in VCaP cells. Conditions: 0.01-100 μM, two hours. On the procedure:
(§2) PAR inhibition using niraparib was assessed in 2 human prostate cancer cell lines, C4-2B and VCaP. The C4-2B cell line was grown in RPMI1640±GlutaMAX™-I medium supplemented with 10% FBS and NEAA and split every 3-4 days. VCaP cells were grown in DMEM+GlutaMAX™-I medium with FBS and NEAA and subcultured every 7 days.
(§3) Cells were harvested by brief trypsinization and each line was seeded into 6-well plates in 1 mL of medium at an appropriate density. An extra 500 μL of complete medium was added, for a total volume per well of 1.5 mL. Cells were rested overnight in the plates at 37° C. in a humidified 5% CO2 incubator. The next day, medium was removed from plates and cells were washed using 1 mL serum free medium (RPMI or DMEM respectively). Treatment was initiated by addition of 1 mL of niraparib (final concentrations 100, 10, 1, 0.1, 0.01 and 0 μM in 0.1% DMSO) in the appropriate medium to triplicate wells. Plates were returned to the incubator for two hours.
(§4) Following treatment, extracts were prepared using reagents and procedures provided in the HT PARP in vivo Pharmacodynamic Assay II (Trevigen #4520-096-K). Medium was removed from each well and placed into separate labeled microfuge tubes, and the plates were placed on ice. The tubes were spun at 1500 rpm for 4 minutes to pellet any cells that detached from the plate during drug incubation.
(§5) Samples were assayed in duplicate.

Experiment [3] relates to poly(ADP)ribose (PAR) formation in C4-2B cells. The settings on record: 0.01-100 μM, two hours. How it is done: as §2, §3, §4, §5
Experiment [4] deals with γ-H2AX in LNCaP AR.TB cells. The settings on record: 18 hours.
In the next experiment the test system is γ-H2AX in 22RV1 cells. Conditions: 22RV1 (printed 22AV1), 18 hours.

Turning to `NC(=O)c1cccc2cn(-c3ccc([C@@H]4CCCNC4)cc3)nc12` [niraparib, 2-[4-[(3S)-piperidin-3-yl]phenyl]indazole-7-carboxamide], the “tumor growth inhibition (TGI)” value in experiment [1] (25 mg/kg QD p.o., days 22 and 24, not significant) was around 12%; in [1] (50 mg/kg QD p.o., days 18, 22 and 24, significant), around 40%. The EC50 was 1.22 µM with C4-2B cells; around 1.2 µM in the experiment on C4-2B cells (Homo sapiens, 168 h); 4.1 µM with VCaP cells; 4.1 µM in the experiment with VCaP cells (Homo sapiens, 168 h); 3.5 µM in the experiment on LNCaP cells; 2.14 µM with LNCaP AR.TB cells. In the experiment with 22Rv1 cells, this molecule yielded a half-maximal effective concentration (EC50) of 3.52 µM. In addition, the “1st Significant Concentration (minimum concentration that induces significant change in γ-H2AX)” value in the experiment with γ-H2AX in C4-2B cells was determined as 1.57 µM; in [4], 3.13 µM; in the experiment with γ-H2AX in 22RV1 cells it was 1.57 µM. The “PAR (pg PAR/mg of protein)” value in experiment [2] and in [3] was “reduced in a dose-dependent fashion” each time.

As usually defined, the EC50 is the concentration needed to bring the measured effect to its halfway point. Read a low EC50 as a more potent agent.
